This is an account of results in PubChem BioAssay (NCI).

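Method: 48-hour compound exposure of cells in 96-well plates, five concentrations, linear interpolation of endpoints. Here, GI50 denotes the concentration required for 50% inhibition of growth. TGI denotes the concentration required for complete inhibition of growth.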

Among the test systems are A549 NSCLC; BT-549 breast; K-562 leukemia; MDA-MB-231 breast; NCI/ADR-RES ovarian; OVCAR-3 ovarian; SK-MEL-28 melanoma; UACC-257 melanoma; ACHN renal; CCRF-CEM leukemia.
What all share (assay): NCI tumour cell line growth inhibition, 48 h

For the compound `COC(=O)c1cccc(NC(=O)c2ccc(NC3=C(Cl)C(=O)N(Cc4ccccc4)C3=O)cc2)c1`, the GI50 is 17.5 µM with A549 NSCLC; 15.3 µM with BT-549 breast; 21.3 µM in the assay with K-562 leukemia; 10.7 µM in the assay with MDA-MB-231 breast; 15.9 µM in the assay on NCI/ADR-RES ovarian; 6.45 µM with OVCAR-3 ovarian. The GI50 in the assay with SK-MEL-28 melanoma is 15.2 µM; with UACC-257 melanoma it was 15.4 µM. Further, the TGI in the assay with A549 NSCLC was 48.7 µM; in the assay with BT-549 breast, 31.9 µM; in the assay on K-562 leukemia, 52.7 µM; with MDA-MB-231 breast it was 32.1 µM; in the assay on NCI/ADR-RES ovarian, 37.6 µM; in the assay on OVCAR-3 ovarian it was 25.9 µM. Also, the TGI in the assay on SK-MEL-28 melanoma was found to be 52 µM; with UACC-257 melanoma, 50.2 µM.
As for `Cc1cc(-c2cc(OC(=O)c3ccccc3)ccc2Cl)cc2nnc(Nc3ccc(OCCN4CCCC4)cc3)nc12`, the GI50 is 1.72 µM in the assay with A549 NSCLC; 1.35 µM in the assay on ACHN renal; 2.67 µM in the assay on BT-549 breast; 0.0472 µM in the assay on K-562 leukemia; 1.05 µM with MDA-MB-231 breast; 1.86 µM with NCI/ADR-RES ovarian. In addition, the figures for the GI50 in the assay on OVCAR-3 ovarian, in the assay on SK-MEL-28 melanoma and in the assay with UACC-257 melanoma were 1.6 µM, 1.5 µM and 1.62 µM, respectively. Further, the TGI with A549 NSCLC stood at 3.29 µM; in the assay with ACHN renal, 2.63 µM; in the assay with BT-549 breast, 6.68 µM; in the assay on K-562 leukemia, 0.324 µM; with MDA-MB-231 breast, 2.31 µM; in the assay on NCI/ADR-RES ovarian, 4.1 µM. Also, the TGI in the assay on OVCAR-3 ovarian was determined as 2.97 µM; in the assay on SK-MEL-28 melanoma, 2.93 µM; with UACC-257 melanoma, 3.14 µM.
Regarding `COC(=O)Nc1nc2ccc(C(=O)c3ccc(F)cc3)cc2[nH]1`, the GI50 in the assay on A549 NSCLC was 0.468 µM; in the assay on ACHN renal, 1.05 µM; in the assay on BT-549 breast it was 2.44 µM; with MDA-MB-231 breast, 0.563 µM; with NCI/ADR-RES ovarian, 0.108 µM; with OVCAR-3 ovarian, 0.0517 µM. The values for the GI50 with SK-MEL-28 melanoma and in the assay on UACC-257 melanoma were 0.556 µM and 68 µM, respectively. Further, the TGI was more than 100 µM in the assay with A549 NSCLC; more than 100 µM with ACHN renal; more than 100 µM in the assay on BT-549 breast; 13.6 µM with MDA-MB-231 breast; 0.562 µM in the assay with NCI/ADR-RES ovarian; 0.211 µM with OVCAR-3 ovarian. Moreover, the TGI with SK-MEL-28 melanoma and with UACC-257 melanoma was more than 100 µM in each case.
On to `COc1ccc(/C=C/C(=O)/C=C(O)/C=C/c2ccc(OC)c(OC)c2)cc1OC`, for which the GI50 is 37.9 µM in the assay with A549 NSCLC; 6.97 µM in the assay with ACHN renal; 3.66 µM in the assay with CCRF-CEM leukemia; 1.16 µM in the assay with K-562 leukemia; 6.19 µM in the assay on MDA-MB-231 breast; 3.86 µM in the assay on NCI/ADR-RES ovarian. Besides, the GI50 in the assay on OVCAR-3 ovarian is 2.8 µM; in the assay with SK-MEL-28 melanoma, 18.4 µM; in the assay with UACC-257 melanoma, 33.9 µM. Also, the TGI in the assay with A549 NSCLC, in the assay with ACHN renal, in the assay on CCRF-CEM leukemia, in the assay on K-562 leukemia, in the assay on MDA-MB-231 breast and with NCI/ADR-RES ovarian was more than 100 µM throughout. The TGI is more than 100 µM in the assay with OVCAR-3 ovarian, 44 µM in the assay on SK-MEL-28 melanoma and 64.8 µM in the assay with UACC-257 melanoma.
Consider `COC1C(=O)CCC2(CO2)C1(O)C1(C)OC1CC=C(C)C` (configuration not stated), for which the TGI is more than 100 µM in the assay on A549 NSCLC; more than 100 µM in the assay with ACHN renal; more than 100 µM with BT-549 breast; 76.3 µM in the assay with K-562 leukemia; more than 100 µM with MDA-MB-231 breast; more than 100 µM in the assay on OVCAR-3 ovarian. Further, the TGI in the assay on SK-MEL-28 melanoma and in the assay on UACC-257 melanoma was more than 100 µM each time.
For the compound `COc1cc(C)[nH]c(=O)c1CNC(=O)c1c(C)n([C@H](C)C2CCN(CC(F)(F)F)CC2)c2ccccc12`, the GI50 with A549 NSCLC is 87.4 µM; in the assay with BT-549 breast it was 33.6 µM; in the assay on CCRF-CEM leukemia, 50.4 µM; in the assay with K-562 leukemia, 48.5 µM; in the assay with MDA-MB-231 breast, 51 µM; in the assay on NCI/ADR-RES ovarian, 77.2 µM. The figures for the GI50 in the assay on OVCAR-3 ovarian, in the assay on SK-MEL-28 melanoma and in the assay on UACC-257 melanoma were 43.3 µM, 60.8 µM and 54.2 µM, respectively. Further, the TGI with A549 NSCLC, in the assay with BT-549 breast, in the assay on CCRF-CEM leukemia, in the assay on K-562 leukemia, in the assay on MDA-MB-231 breast and in the assay with NCI/ADR-RES ovarian was more than 100 µM throughout. Further, the TGI in the assay with OVCAR-3 ovarian, in the assay with SK-MEL-28 melanoma and in the assay with UACC-257 melanoma was more than 100 µM throughout.
Regarding `COc1cc2c(cc1-c1coc3cc(O)ccc3c1=O)OCO2`, the TGI was 77.4 µM in the assay with A549 NSCLC; 40.9 µM in the assay on ACHN renal; 41.2 µM with BT-549 breast; more than 100 µM in the assay with CCRF-CEM leukemia; more than 100 µM in the assay with K-562 leukemia; 48.4 µM in the assay on NCI/ADR-RES ovarian. For the same compound, the results for the TGI in the assay on OVCAR-3 ovarian, with SK-MEL-28 melanoma and in the assay on UACC-257 melanoma were more than 100 µM, more than 100 µM and 85.1 µM, respectively.
Take `CN(C)CCCCNc1ccc(NCCCCN(C)C)c2c1C(=O)c1c(O)ccc(O)c1C2=O`: the GI50 in the assay with A549 NSCLC is 1.57 µM; in the assay on ACHN renal, 1.61 µM; in the assay with BT-549 breast it was 16 µM; in the assay on MDA-MB-231 breast, 1.47 µM; in the assay with NCI/ADR-RES ovarian, 1.62 µM; with OVCAR-3 ovarian it was 1.62 µM. The GI50 in the assay with SK-MEL-28 melanoma was 17.8 µM; in the assay with UACC-257 melanoma, 18.4 µM. The TGI stood at 2.94 µM with A549 NSCLC; 2.96 µM with ACHN renal; 29.5 µM with BT-549 breast; 2.78 µM with MDA-MB-231 breast; 3.08 µM in the assay on NCI/ADR-RES ovarian; 2.97 µM in the assay with OVCAR-3 ovarian. The values for the TGI with SK-MEL-28 melanoma and in the assay with UACC-257 melanoma were 31.7 µM and 32.3 µM, respectively.
Regarding `COc1cc2c(cc1[N+](=O)[O-])C(=O)C(Br)(Br)CCC2`, the TGI with A549 NSCLC is more than 46.6 µM; in the assay with ACHN renal, 4.47 µM; in the assay with BT-549 breast, 4.97 µM; with CCRF-CEM leukemia it was 3.35 µM; with K-562 leukemia, 6.27 µM; in the assay with MDA-MB-231 breast it was 9.42 µM. Further, the TGI with NCI/ADR-RES ovarian was 7.31 µM; in the assay on OVCAR-3 ovarian, 10.5 µM; in the assay on UACC-257 melanoma, 26.7 µM.
In the case of `CN(C)c1ccc(/C=c2/c3cc(O)ccc3n3c2cc(-c2ccccc2)[n+]3C)cc1`, the TGI with A549 NSCLC is more than 100 µM; with ACHN renal it was more than 100 µM; in the assay on CCRF-CEM leukemia, 4.1 µM; with MDA-MB-231 breast, 2.82 µM; in the assay on NCI/ADR-RES ovarian it was more than 100 µM; with SK-MEL-28 melanoma it was 2.36 µM. In the assay with UACC-257 melanoma, the TGI was found to be 3.07 µM. Besides, the GI50 is 4.78 µM in the assay with ACHN renal and 1.01 µM in the assay with K-562 leukemia.
